According to patent US10517889B2, “Modulators of SMAD7 expression” (Ionis Pharmaceuticals, Inc., priority 2017, dated 2019):

Legend:
[1] = Plasma chemistry markers after subcutaneous administration in beagle dogs (Example 8); details: 30 mg/kg subcutaneous days 1, 3, 5, 8, 15, 22, 29, plasma at day 31
[2] = test system: human peripheral blood mononuclear cells (PBMCs); assay: Human PBMC activation assay, cytokine levels (IL-10, IL-6, MCP-1, TNF-α) in supernatant after 24 hours (Example 9); details: human PBMC supernatant after 24 hours
Experimental: Ionis SMAD7 oligonucleotides were tested in an in vitro assay for potential immunostimulatory properties in an in vitro human peripheral blood mononuclear cell (PBMC) activation assay.
Blood samples were collected from healthy human volunteers in heparinized vials and mixed well. Human PBMCs were isolated by gradient centrifugation using Ficoll-Histopaque. The cells were washed, counted and resuspended in medium. The PBMCs were plated in a 24-well culture plate and various concentrations of oligonucleotides were added to the media. An oligonucleotide historically known to promote an inflammatory response was used as a positive control, whereas an oligonucleotide known not to be pro-inflammatory was used as a negative control. […] The supernatants were collected after 24 hours and analyzed for cytokine levels using MSD platform.

mouse Smad7 mRNA = assay: Pharmacology: mouse Smad7 mRNA expression in liver, kidney, duodenum, ileum and colon after subcutaneous administration in CD-1 mice (Example 6); type: in vivo; details: 50 mg/kg subcutaneous twice weekly for 7 weeks, normalized to GAPDH
Summary of the method: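 Male CD-1 mice, 8-9 weeks old, got 50 mg/kg oligonucleotide subcutaneously twice weekly (100 mg/kg/week) for 7 weeks, with PBS controls; n=4 per group. At necropsy, Smad7 mRNA in liver, kidney, duodenum, ileum and colon was measured by RT-PCR (probe set HTS7555), normalized to GAPDH; one-way ANOVA with Dunnett's test.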

[3] = Hematology assays after oral gavage in CD-1 mice (Example 7); type: in vivo; set-up: RBC: unit not given here; details: 500 mg/kg oral gavage once daily for 4 weeks
Experimental: (§1) Groups of 7-8 week old male CD-1 mice were given an oral gavage dose once daily for 4 weeks of 500 mg/kg of Ionis SMAD7 oligonucleotides. Each group contained 8 mice. One group of male CD-1 mice was administered saline by oral gavage daily.
Blood obtained from all mouse groups was measured by an ADVIA2120i hematology analyzer (Siemens, USA) for measurements of the various blood cells, as well as other hematology markers. None of the Ionis SMAD7 oligonucleotides caused changes in the levels of any of the hematology markers outside the expected range for antisense oligonucleotides.

[4] = Oligonucleotide concentration in tissues by LC-MS/MS after subcutaneous administration in beagle dogs (Example 8); type: in vivo; details: 30 mg/kg subcutaneous, 48 hours after the last dose
Experimental: (§2) There were 4 animals per group.
Oligonucleotide concentrations of both ION 830025 and ION 798781 were detected in various tissues by LC-MS/MS analysis. The results are presented below, expressed as μg/g tissue. The data was collected 48 hours after the last dose.

[5] = Oligonucleotide concentrations in tissues by LC-MS/MS after oral gavage in CD-1 mice (Example 7); type: in vivo; details: 500 mg/kg oral gavage once daily for 4 weeks, 48 hours after last dose
Experimental: as §1
Oligonucleotide concentrations were detected in various tissues by LC-MS/MS analysis. The greatest concentration was found in the kidney, followed by the colon.

[6] = Body and organ weights after subcutaneous administration in beagle dogs (Example 8); type: in vivo; details: 30 mg/kg subcutaneous days 1, 3, 5, 8, 15, 22, 29, end of study
Experimental: as §2
Body weights as well as kidney, spleen, liver (with gall bladder), mesenteric lymph node, heart, and thymus weights were measured at the end of the study. […] Ionis SMAD7 oligonucleotides that caused any changes in organ weights outside the expected range for antisense oligonucleotides were excluded from further studies.

[7] = Blood chemistry markers after oral gavage in CD-1 mice (Example 7); type: in vivo; details: 500 mg/kg oral gavage once daily for 4 weeks, day 30
Experimental: The objective of this study was to evaluate the tolerability and pharmacodynamics of select Ionis human SMAD7 antisense oligonucleotides in CD-1 mice following 4 weeks of treatment. The mice were administered oligonucleotides by oral gavage.
as §1
Levels of transaminases, albumin, and BUN were measured using a Toshiba 200FR NEO chemistry analyzer (Toshiba Co., Japan).

[8] = Oligonucleotide concentration in liver and colon by LC-MS/MS after subcutaneous administration in CD-1 mice (Example 6); type: in vivo; details: 50 mg/kg subcutaneously twice a week for 7 weeks, 48 hours after the last dose
Experimental: Groups of 8-9 week old male CD-1 mice were injected subcutaneously twice a week for 7 weeks with 50 mg/kg of Ionis oligonucleotides (100 mg/kg/week dose). Each group contained 4 mice. One group of male CD-1 mice was injected subcutaneously twice a week for 7 weeks with PBS. Plasma was collected for analysis on day 28.
Oligonucleotide concentrations in the liver and colon were analyzed using LC-MS/MS method.

## 830037 (antisense CTATTGGCTGATCTGG; 3-10-3 cEt gapmer, further chemistry not given here) [compound 830037]
[1]
  ALT: 3091 IU/L
  AST: 1132 IU/L
  Albumin: 3.7 g/dL
  BUN: 21.2 mg/dL
  Bilirubin: 0.8 mg/dL
  Creatine: 1.0 mg/dL
[2]; 0.0128 μM oligonucleotide
  Levels of IL-6: 3.8 pg/mL
  Levels of IL-10: 1.6 pg/mL
  Levels of MCP-1: 369.4 pg/mL
  Levels of TNF-α: 3.2 pg/mL
[2]; 0.064 μM oligonucleotide
  Levels of IL-6: 9.8 pg/mL
  Levels of IL-10: 3.2 pg/mL
  Levels of MCP-1: 557.1 pg/mL
  Levels of TNF-α: 4.1 pg/mL
[2]; 0.32 μM oligonucleotide
  Levels of IL-6: 26.7 pg/mL
  Levels of IL-10: 8.2 pg/mL
  Levels of MCP-1: 1284.2 pg/mL
  Levels of TNF-α: 8.2 pg/mL
[2]; 1.6 μM oligonucleotide
  Levels of IL-6: 38.6 pg/mL
  Levels of IL-10: 9.5 pg/mL
  Levels of MCP-1: 1085.9 pg/mL
  Levels of TNF-α: 9.2 pg/mL
[2]; 8 μM oligonucleotide
  Levels of IL-6: 38.4 pg/mL
  Levels of IL-10: 7.1 pg/mL
  Levels of MCP-1: 1917.1 pg/mL
  Levels of TNF-α: 11.1 pg/mL
[2]; 40 μM oligonucleotide
  Levels of IL-6: 58.7 pg/mL
  Levels of IL-10: 4.7 pg/mL
  Levels of MCP-1: 3414.8 pg/mL
  Levels of TNF-α: 16.6 pg/mL
[2]; 200 μM oligonucleotide
  Levels of IL-6: 71.2 pg/mL
  Levels of IL-10: 3.8 pg/mL
  Levels of MCP-1: 2449.3 pg/mL
  Levels of TNF-α: 18.9 pg/mL
Mouse Smad7 mRNA
  % inhibition of Smad7 mRNA expression (compared to control), Kidney: 7%
  % inhibition of Smad7 mRNA expression (compared to control), Liver: 24%
[3]
  Basophils: 0.01 10^3/μL
  Eosinophils: 0.15 10^3/μL
  Hematocrit: 53.4%
  Hemoglobin: 15.4 g/dL
  Lymphocytes: 73.2%
  MCH: 15.4 pg
  MCHC: 28.9 g/dL
  MCV: 53.2 fL
  Monocytes: 0.13 10^3/μL
  Neutrophils: 19.3%
  RBC: 10.1
  Reticulocytes: 3.1%
  WBC: 4.3 10^3/μL
  platelets: 1122 10^3/μL
[4]
  Full length oligonucleotide, Distal colon: 46 µg/g
  Full length oligonucleotide, Duodenum: 55 µg/g
  Full length oligonucleotide, Ileum: 67 µg/g
  Full length oligonucleotide, Kidney: 894 µg/g
  Full length oligonucleotide, Liver: 521 µg/g
  Full length oligonucleotide, Proximal colon: 86 µg/g
[5]
  Oligonucleotide concentration, Colon: 4.8 µg/g
  Oligonucleotide concentration, Duodenum: 1.2 µg/g
  Oligonucleotide concentration, Ileum: 2.7 µg/g
  Oligonucleotide concentration, Kidney: 32.4 µg/g
  Oligonucleotide concentration, Liver: 3.9 µg/g
[6]
  Body weight: 6437 g
  Heart weight: 51.9 g
  Kidney weight: 36.7 g
  Liver weight: 204.1 g
  Mesenteric LN weight: 9.0 g
  Spleen weight: 23.7 g
  Thymus weight: 6.3 g
[7]
  ALT: 62 IU/L
  AST: 94 IU/L
  Albumin: 3.3 g/dL
  BUN: 26 mg/dL
  Bilirubin: 0.3 mg/dL
[8]
  Oligonucleotide concentration, Colon: 24 μg/g tissue
  Oligonucleotide concentration, Liver: 97 μg/g tissue

## 830025 (antisense TTTGTAAATCGAAAGC; 3-10-3 cEt gapmer, further chemistry not given here) [compound 830025]
[1]
  ALT: 26 IU/L
  AST: 38 IU/L
  Albumin: 3.1 g/dL
  BUN: 17.9 mg/dL
  Bilirubin: 0.1 mg/dL
  Creatine: 0.9 mg/dL
[2]; 0.0128 μM oligonucleotide
  Levels of IL-6: 3.1 pg/mL
  Levels of IL-10: 1.5 pg/mL
  Levels of MCP-1: 309.7 pg/mL
  Levels of TNF-α: 2.8 pg/mL
[2]; 0.064 μM oligonucleotide
  Levels of IL-6: 3.8 pg/mL
  Levels of IL-10: 1.9 pg/mL
  Levels of MCP-1: 353.9 pg/mL
  Levels of TNF-α: 2.9 pg/mL
[2]; 0.32 μM oligonucleotide
  Levels of IL-6: 5.0 pg/mL
  Levels of IL-10: 2.6 pg/mL
  Levels of MCP-1: 387.7 pg/mL
  Levels of TNF-α: 3.9 pg/mL
[2]; 1.6 μM oligonucleotide
  Levels of IL-6: 12.9 pg/mL
  Levels of IL-10: 3.6 pg/mL
  Levels of MCP-1: 554.3 pg/mL
  Levels of TNF-α: 5.4 pg/mL
[2]; 8 μM oligonucleotide
  Levels of IL-6: 17.8 pg/mL
  Levels of IL-10: 2.9 pg/mL
  Levels of MCP-1: 750.0 pg/mL
  Levels of TNF-α: 6.7 pg/mL
[2]; 40 μM oligonucleotide
  Levels of IL-6: 19.5 pg/mL
  Levels of IL-10: 1.4 pg/mL
  Levels of MCP-1: 580.8 pg/mL
  Levels of TNF-α: 7.6 pg/mL
[2]; 200 μM oligonucleotide
  Levels of IL-6: 30.6 pg/mL
  Levels of IL-10: 0.7 pg/mL
  Levels of MCP-1: 52.7 pg/mL
  Levels of TNF-α: 4.9 pg/mL
Mouse Smad7 mRNA
  % inhibition of Smad7 mRNA expression (compared to control), Kidney: 45%
  % inhibition of Smad7 mRNA expression (compared to control), Liver: 60%
[3]
  Basophils: 0.01 10^3/μL
  Eosinophils: 0.08 10^3/μL
  Hematocrit: 52.4%
  Hemoglobin: 15.0 g/dL
  Lymphocytes: 77.6%
  MCH: 14.9 pg
  MCHC: 28.5 g/dL
  MCV: 52.3 fL
  Monocytes: 0.12 10^3/μL
  Neutrophils: 17.5%
  RBC: 10.1
  Reticulocytes: 3.2%
  WBC: 4.7 10^3/μL
  platelets: 1236 10^3/μL
[4]
  Full length oligonucleotide, Distal colon: 49 µg/g
  Full length oligonucleotide, Duodenum: 97 µg/g
  Full length oligonucleotide, Ileum: 41 µg/g
  Full length oligonucleotide, Kidney: 1470 µg/g
  Full length oligonucleotide, Liver: 466 µg/g
  Full length oligonucleotide, Proximal colon: 31 µg/g
[5]
  Oligonucleotide concentration, Colon: 3.6 µg/g
  Oligonucleotide concentration, Duodenum: 0.7 µg/g
  Oligonucleotide concentration, Ileum: 1.9 µg/g
  Oligonucleotide concentration, Kidney: 21.5 µg/g
  Oligonucleotide concentration, Liver: 2.3 µg/g
[6]
  Body weight: 7403 g
  Heart weight: 60.5 g
  Kidney weight: 40.3 g
  Liver weight: 250.3 g
  Mesenteric LN weight: 10.9 g
  Spleen weight: 28.9 g
  Thymus weight: 8.3 g
[7]
  ALT: 34 IU/L
  AST: 65 IU/L
  Albumin: 3.3 g/dL
  BUN: 21 mg/dL
  Bilirubin: 0.2 mg/dL
[8]
  Oligonucleotide concentration, Colon: 39 μg/g tissue
  Oligonucleotide concentration, Liver: 77 μg/g tissue
